Source: patent publication US5488110A, “Highly water soluble bis-naphthalimides useful as anticancer agents” (The Du Pont Merck Pharmaceutical Company, priority 1994, dated 1996)
≈ marks a conversion by molar mass, not a printed value. Entries after “also recorded” stand apart in the source; their conditions may differ.

Experiments:
[1] = UV Method For Determining Water Solubility; assay type: physicochemical; conditions: for solubility: water, room temperature, saturated solution standing over excess sample 15 to 20 hours, UV
Experimental: UV Method For Determining Water Solubility:
The ultraviolet spectrum is taken at room temperature of a saturated solution of the sample (saturated solution being defined as a water solution standing over excess sample for 15 to 20 hours with no heat being applied). A standard solution of the sample is obtained in water if possible. When the solubility in water is too low to do this (<1 mg/100 ml), a mg of the sample is dissolved in DMSO and diluted to 100 ml with water. Molar or gram extinction coefficients are calculated for the standard solutions and these values are used to determine the concentration of the saturated solution.

[2] = test system: murine leukemia L1210 cells; assay: In vitro Growth Inhibitory Activity (MTT, 3 days); assay type: cell-based; conditions: Mus musculus, 72 h, 3 days at 37° C., read-out: ID50 (the source's name)
Experimental: L1210 cells were maintained in RPMI=1640 a medium supplemented with 10% heat inactivated fetal bovine serum and […] (RPMI-L). B16 cells were maintained in RPMI-1640 medium supplemented with 15% heat inactivated fetal bovine serum and antiobiotics (RPMI-C).
Exponential growing murine leukemia L1210 cells (1×10^3 cells) in 0.1 mL medium were seeded on day 0 in a 96-well microtiter plate. On day 1, 0.1 mL aliquot of medium containing graded concentrations of test analogs was added to the initial volume. After incubation at 37° C. in a humidified incubator for 3 days, the plates were centrifuged briefly and 0.1 mL of the growth medium was removed. Cell cultures were incubated with 50 μL of 3-(4,5-dimethylthiazol-2-yl)-2,5- diphenyltetrazolium bromide (MTT; 1 mg/ml in Dulbecco's phosphate buffer saline) for 4 hours at 37° C. The resulting purple formazan precipitate was solubilized with 0.2 mL of 0.04N HCl in isopropyl alcohol. Absorbance was read in a Titertek Multiskan MCC scaning well spectrophotometer (Flow Laboratories) at a test wavelength of 570 nm and a reference wavelength of 630 nm.
The ID50 values were determined by a computer program that fit all of the data (8 determinations per concentration and 12 concentrations per test analog) to the following equation:
Y=((Am-Ao)/(1+(X/ID50)n))+Ao
where: Am=absorbance of the control cells; Ao=absorbance of the cells in the presence of highest drug concentration; Y=observed absorbance; X=drug concentration; ID50 =dose of drug that inhibits the growth of cells to one half that of the control cells.

DLD-2 human colon tumor = assay: In Vivo Human Tumor Xenograft Model, DLD-2; design: species or system human (xenografted in nude mice); conditions: nude mice, i.v. once daily for nine consecutive days; NCI criteria
From the text: (§1) The DLD-2 human colon tumor, MX-1 human mammary carcinoma, and LX-1 human lung tumor were originally obtained from a surgically removed primary colon carcinoma, breast tumor, and non-small lung carcinoma, respectively. The human tumor lines were maintained by serial passage in athymic nude mice. The MX-1 human mammary carcinoma and LX-1 human lung tumor are established tumors used by the NCI. The DLD-2, MX-1, and LX-1 tumor models have been well characterized.
The mice used in these experiments were outbred Swiss mice or BALB/c mice bearing the nude (nu/nu) gene. On day 0 male and female mice weighing 22-30 g are inoculated with 0.2 mL of a 25% tumor mince. This mince is prepared by mincing fresh tumor tissue, grown subcutaneously in passage mice, in sterile physiological saline. Palpable tumors weighing approximately 50 mg appear in the mice within 7-10 days after inoculation. The mice are pair matched by tumor weight and sex into groups of ten each and the test compounds and vehicle control are administered intravenously (i.v.) once daily for nine consecutive days. A >20% decrease in body weight on day 5 following compound administration is considered an indication of toxicity. Tumor measurements and body weights are recorded once a week. Fifteen to 18 days after the initial injection the mice are weighed, sacrificed and the tumors excised and weighed.
(§2) The efficacy of the test compounds is determined by the extent of tumor growth inhibition in treated versus vehicle-treated control mice. Initial tumor weights (mg) are calculated from the tumor dimensions (mm) measured from caliper measurements, using the formula for a prolate ellipsoid (mg of tumor weight=(length×width^2)/2). Net tumor weights are calculated for each of the treated groups and the vehicle-treated control group by subtracting the initial tumor weight from the final tumor weight on day 15. Results are expressed as a percentage decrease relative to the mean tumor weight for the control vehicle-treated group. [formula] Activity Criteria […]

MX-1 human breast tumor = assay: In Vivo Human Tumor Xenograft Model, MX-1; design: species or system human (xenografted in nude mice); conditions: nude mice, i.v. once daily for nine consecutive days; NCI criteria
From the text: as §1
(§3) The mice used in these experiments were outbred Swiss mice or BALB/c mice bearing the nude (nu/nu) gene. On day 0 male and female mice weighing 22-30 g are inoculated with 0.2 mL of a 25% tumor mince. […] Tumor measurements and body weights are recorded once a week. […]
as §2, with “group.” for “group. [formula] Activity Criteria”

LX-1 human lung tumor = assay: In Vivo Human Tumor Xenograft Model, LX-1; design: species or system human (xenografted in nude mice); conditions: nude mice, i.v. once daily for nine consecutive days; NCI criteria
From the text: as §1, §3
as §2, with “group.” for “group. [formula] Activity Criteria”

| SMILES | solubility [1] [mg/mL] | IC50 [2] [mg/L] | activity against DLD-2 human colon tumor in vivo (tumor growth inhibition) (DLD-2 human colon tumor) | water solubility (in words) ([1]; in words, relative to related compounds) | activity against MX-1 human breast tumor in vivo (tumor growth inhibition) (MX-1 human breast tumor) | activity against LX-1 human lung tumor in vivo (tumor growth inhibition) (LX-1 human lung tumor) |
| --- | --- | --- | --- | --- | --- | --- |
| CN(CCNCCN1C(=O)c2cccc3cc([N+](=O)[O-])cc(c23)C1=O)CCN1C(=O)c2cccc3cc([N+](=O)[O-])cc(c23)C1=O [Example 2, 2-[2-[N-methyl-N-[2-[[2-(5-nitro-1,2-dioxo-1H-benz[de]isoquinoline-2(3H)-yl)ethyl]amino]ethyl]amino]ethyl]-5-nitro-1H-benz[de]isoquinoline-1,3(2H)-dione methanesulfonate (1:2)] | 9.6 | < 0.01 | excellent to outstanding |  |  |  |
| CN(CCN(C)CCN1C(=O)c2cccc3cc([N+](=O)[O-])cc(c23)C1=O)CCN1C(=O)c2cccc3cc([N+](=O)[O-])cc(c23)C1=O [Example 1, 2,2'-[1,2-Ethanediylbis(methylimino-2,1-ethanediyl)]-bis[5-nitro-1H-benz[de]isoquinoline-1,3(2H)-dione]methanesulfonate (1:2)] | > 26.4 | 0.0115 (≈ 0.0184 µM) | excellent to outstanding | unexpected increased water solubility; also recorded: dramatic unexpected increase in water solubility | good to excellent (inhibition of ≥90% is considered good to excellent activity) |  |
| O=C1c2cccc3cc([N+](=O)[O-])cc(c23)C(=O)N1CCNCCNCCN1C(=O)c2cccc3cc([N+](=O)[O-])cc(c23)C1=O [Example 3, 2,2'-[1,2-Ethanediylbis(imino-2,1-ethanediyl)]-bis[5-nitro-1H-benz[de]isoquinoline-1,3(2H)-dione]methanesulfonate (1:2)] | 0.6 (≈ 1010 µM) | 0.009 (≈ 0.0151 µM) | excellent to outstanding |  | excellent to outstanding | moderate (Tumor growth inhibition of 58-89% in the DLD-2 assay is considered moderate activity) |
